Test results published in paper PMC12150283, “Synthesis of new Ag(I) and Cd(II) hydrozanomide-based complexes with antibacterial and anticancer properties” (RSC Advances, 2025).
Like-named read-outs stand apart in the source and are kept apart here.

Legend:
[1] = tested on: glioblastoma LN-229 cells; assay: MTT cell viability assay; type: cell-based, human; conditions: 48 hours of incubation
Description: (§1) The glioblastoma cell lines LN-229 and U87 and the reference human normal skin fibroblast BJ were obtained from the American Type Culture Collection (ATCC). Cells were grown as monolayers when cultured in cell culture flasks and cultured in Dulbecco's Modified Eagle Medium (DMEM) – LN-229 and Eagle's Minimum Essential Medium (EMEM) – U87 and BJ, supplemented with 10% (v/v) fetal bovine serum, penicillin (10 000 U mL^−1), streptomycin (10 mg mL^−1) and amphotericin B (250 μg mL^−1). The cells were incubated at 37 °C, 5% CO2 atmosphere. The cells were maintained in the logarithmic growth phase by regular passage at 80% confluence.
(§2) The cytotoxicity of the tested compounds was evaluated against both human glioblastoma LN-229 and U-87 as well as normal BJ cell lines. The cells were plated in 96-well culture plates (2 × 10^4 well) and after 24 h incubation the cells were treated with the tested compounds in the concentration range 1–50 μM. The cells were cultured for the next 48 h. The cytotoxicity of the compounds was evaluated using the MTT colorimetric method as previously described.[28,29] IC50 values were determined using the AAT Bioquest IC50 calculator as the concentration of compounds capable of reducing cell viability by 50%. The experiment was performed in triplicate for each concentration. To examine the cytotoxic effect of compounds on cell morphology, cells were examined under an inverted phase contrast microscope Nikon Eclipse Ti with NIS Element software (Tokyo, Japan).

[2] = tested on: normal skin fibroblast BJ cells; assay: MTT cell viability assay; type: cell-based, human; conditions: BJ normal fibroblasts, 48 hours of incubation
Description: as §1, §2

glioblastoma U87 cells = assay: MTT cell viability assay; type: cell-based, human; conditions: 48 hours of incubation
Description: as §1, §2

E. coli ATCC 10530 = assay: Diffusion-well method, inhibition zones; type: cell-based, Escherichia coli; conditions: 500 µg/mL, wells 10 mm
Description: (§3) The antibacterial activity of tested samples was assessed against both gram-positive bacteria (Staphylococcus aureus ATCC 25923, Staphylococcus aureus ATCC 6538, Staphylococcus epidermidis ATCC 12228, Enterococcus faecalis ATCC 29212, Listeria monocytogenes ATCC 19115, Bacillus subtilis ATCC 6633, Bacillus cereus ATCC 10876) and gram-negative bacteria (Escherichia coli ATCC 10530, Salmonella typhimurium ATCC 14028). Antibacterial properties were evaluated using both the dilution method (employing DMSO and 96-well plates) and the diffusion-well method (using Mueller Hinton Agar, Merck, Germany).
(§4) 24 hour bacterial cultures with a density of 1–2 × 10^8 CFU mL^−1 were plated (0.1 mL) on Mueller–Hinton Agar (Merck, Germany). Subsequently, wells with a diameter of 10 mm were cut out from and filled with 100 μL of the tested compound at a concentration of 10–500 μg mL^−1 (diluted in DMSO). After an 18-hour incubation at either 30 °C (for Bacillus ssp.) or 37 °C (for other tested microorganisms), the inhibition zones around the wells were measured, and the results were expressed in millimetres (Table S9 ^†).

B. cereus ŁOCK 0807 = assay: Diffusion-well method, inhibition zones; type: cell-based, Bacillus cereus; conditions: 500 µg/mL, wells 10 mm
[3] = tested on: Salmonella typhimurium ATCC 14028; assay: MIC determination; type: cell-based; conditions: S. typhimurium ATCC 14028; 18 h
Description: as §3
(§5) The minimum inhibitory concentrations (MICs) of the tested samples were evaluated against a panel of reference microorganisms obtained from the American Type Culture Collection (ATCC), including Gram-negative bacteria (Escherichia coli ATCC 10530, Salmonella typhimurium ATCC 14028), and Gram-positive bacteria (Staphylococcus aureus ATCC 25923, Staphylococcus aureus ATCC 6538, Staphylococcus epidermidis ATCC 12228, Enterococcus faecalis ATCC 29212, Listeria monocytogenes ATCC 19115, Bacillus subtilis ATCC 6633), and one strain (Bacillus cereus ŁOCK 0807) obtained from the Pure Culture of Industrial Microorganisms of the Institute of Fermentation Technology and Microbiology ŁOCK 105 (Łódź, Poland).
(§6) The microorganism cultures with a density of 1.5 × 10^8 CFU mL^−1 (corresponding to a McFarland standard of 0.5) were plated on Mueller–Hinton Agar (Merck, Germany) following the procedures recommended by the European Committee on Antimicrobial Susceptibility Testing (EUCAST).[47] Wells measuring 10 mm in diameter were cut into the medium. The tested compounds were dissolved in a DMSO solution, which was recommended due to their chemical structures. Subsequently, 100 μL of prepared solutions containing the tested compounds at concentrations ranging from x μg mL^−1 to x μg mL^−1 were added to each well. The plates were incubated at 30 °C (for Bacillus subtilis and Bacillus cereus) or 37 °C (for other bacteria) for 18 hours. After incubation, the minimum inhibitory concentration (MIC value) was determined (the lowest concentration of the tested compounds that prevents bacterial growth) and expressed in μg mL^−1. The experiment was conducted in three independent replicates. Ciprofloxacin (Sigma Aldrich, Saint Louis, MO, USA) was used as a reference antimicrobial agent against Gram-negative bacteria, while vancomycin (Sigma Aldrich, Saint Louis, MO, USA) was used as a reference antimicrobial agent against Gram-positive bacteria.

[4] = tested on: Enterococcus faecalis ATCC 29212; assay: MIC determination; type: cell-based; conditions: E. faecalis ATCC 29212; 18 h
Description: as §3, §5, §6

[5] = tested on: Staphylococcus aureus ATCC 25923; assay: MIC determination; type: cell-based; conditions: S. aureus ATCC 25923, 18 h
Description: as §3, §5, §6

[6] = tested on: Staphylococcus epidermidis ATCC 12228; assay: MIC determination; type: cell-based; conditions: S. epidermidis ATCC 12228; 18 h
Description: as §3, §5, §6

[7] = tested on: Staphylococcus aureus ATCC 6538; assay: MIC determination; type: cell-based; conditions: S. aureus ATCC 6538; 18 h
Description: as §3, §5, §6

[8] = tested on: Bacillus cereus ŁOCK 0807; assay: MIC determination; type: cell-based; conditions: Bacillus cereus ŁOCK 0807; 18 h
Description: as §3, §5, §6

[9] = tested on: Bacillus subtilis ATCC 6633; assay: MIC determination; type: cell-based; conditions: 18 h
Description: as §3, §5, §6

[10] = tested on: Listeria monocytogenes ATCC 19115; assay: MIC determination; type: cell-based
Description: as §3, §5, §6

[11] = tested on: Escherichia coli ATCC 10530; assay: MIC determination; type: cell-based
Description: as §3, §5, §6

B. subtilis ATCC 6633 = assay: Diffusion-well method, inhibition zones; type: cell-based, Bacillus subtilis; conditions: 500 µg/mL, wells 10 mm
Description: as §3, §4

[12] = tested on: S. Typhimurium ATCC 14028; assay: Diffusion-well method, inhibition zones; type: cell-based, Salmonella typhimurium; conditions: 500 µg/mL, wells 10 mm
Description: as §3, §4

[13] = tested on: L. monocytogenes ATCC 19115; assay: Diffusion-well method, inhibition zones; type: cell-based, Listeria monocytogenes; conditions: 500 µg/mL, wells 10 mm
Description: as §3, §4

E. faecalis ATCC 29212 = assay: Diffusion-well method, inhibition zones; type: cell-based, Enterococcus faecalis; conditions: 500 µg/mL, wells 10 mm
Description: as §3, §4

S. aureus ATCC 6538 = assay: Diffusion-well method, inhibition zones; type: cell-based, Staphylococcus aureus; conditions: 500 µg/mL, wells 10 mm
Description: as §3, §4

S. aureus ATCC 25923 = assay: Diffusion-well method, inhibition zones; type: cell-based, Staphylococcus aureus; conditions: 500 µg/mL, wells 10 mm
Description: as §3, §4

[14] = tested on: S. epidermidis ATCC 12228; assay: Diffusion-well method, inhibition zones; type: cell-based, Staphylococcus epidermidis; conditions: 500 µg/mL, wells 10 mm
Description: as §3, §4

[15] = tested on: Enterococcus faecalis ATCC 29212; set-up: method as in earlier work; conditions: pure ligands, E. faecalis ATCC 29212; previous study ref 29; cited from earlier work
[16] = tested on: Staphylococcus aureus ATCC 25923; set-up: method as in earlier work; conditions: pure ligands, S. aureus ATCC 25923; previous study ref 29; cited from earlier work
[17] = tested on: Staphylococcus epidermidis ATCC 12228; set-up: method as in earlier work; conditions: pure ligands, S. epidermidis ATCC 12228; previous study ref 29; cited from earlier work
[18] = tested on: Salmonella typhimurium ATCC 14028; set-up: method as in earlier work; conditions: pure ligands, S. typhimurium ATCC 14028; previous study ref 29; cited from earlier work
[19] = Listeria monocytogenes ATCC 19115, 18 h
[20] = Escherichia coli ATCC 10530, 18 h

| Structure (SMILES) | IC50 [1] | IC50 [2] | IC50 (glioblastoma U87 cells) | Inhibition zone (B. cereus ŁOCK 0807) | MIC [3] | MIC [4] | MIC [5] | MIC [6] | MIC [7] | MIC [8] | MIC [9] | MIC [10, 19] | MIC [11, 20] | MIC [15] | IC50 ([1]; Homo sapiens) | IC50 ([2]; Homo sapiens) | IC50 (glioblastoma U87 cells; Homo sapiens, U-87 MG) | MIC [16] | MIC [17] | MIC [18] | other results |
| --- | --- | --- | --- | --- | --- | --- | --- | --- | --- | --- | --- | --- | --- | --- | --- | --- | --- | --- | --- | --- | --- |
| NC(=NN=Cc1ccc([N+](=O)[O-])cc1)c1cccc(Cl)n1.O=[N+]([O-])[O-].[Ag+] [Complex 2, AgL2NO3] | 37.2 ± 6.55 µM | 14.5 ± 2.82 µM | > 50 µM | 18 mm | 50 µg/mL | 50 µg/mL | 50 µg/mL | > 500 µg/mL | 50 µg/mL | 50 µg/mL | 50 µg/mL | 10 µg/mL | 10 µg/mL | – | – | – | – | – | – | – | Inhibition zone (E. coli ATCC 10530): 20 mm; MIC ([10]; Listeria monocytogenes): 10 µg/mL; MIC ([11]; Escherichia coli): 10 µg/mL; Inhibition zone (B. subtilis ATCC 6633): 16 mm; Inhibition zone [12]: 19 mm; Inhibition zone [13]: 19 mm; Inhibition zone (E. faecalis ATCC 29212): 14 mm; Inhibition zone (S. aureus ATCC 6538): 22 mm; Inhibition zone (S. aureus ATCC 25923): 19 mm |
| NC(=NN=Cc1ccc([N+](=O)[O-])cc1)c1cccc(N2CCCC2)n1.NC(=NN=Cc1ccc([N+](=O)[O-])cc1)c1cccc(N2CCCC2)n1.O=[N+]([O-])[O-].[Ag+] [Complex 4, AgL4NO3] | > 50 µM | > 50 µM | 1.22 ± 0.34 µM | 17 mm | 100 µg/mL | 50 µg/mL | ≤ 10 µg/mL | 50 µg/mL | 100 µg/mL | 50 µg/mL | 50 µg/mL | ≤ 10 µg/mL | ≤ 10 µg/mL | – | – | – | – | – | – | – | Inhibition zone [14]: 16 mm; Inhibition zone (E. coli ATCC 10530): 20 mm; MIC ([5]; listed as 4): <10 µg/mL; MIC ([10]; Listeria monocytogenes ATCC 19115, 18 h, listed as 4): 10 µg/mL; MIC ([11]; Escherichia coli ATCC 10530, 18 h, listed as 4): < 10 µg/mL; Inhibition zone (B. subtilis ATCC 6633): 18 mm; Inhibition zone [12]: 17 mm; Inhibition zone [13]: 19 mm; Inhibition zone (E. faecalis ATCC 29212): 15 mm; Inhibition zone (S. aureus ATCC 6538): 16 mm; Inhibition zone (S. aureus ATCC 25923): 21 mm |
| NC(=NN=Cc1ccccc1)c1cncc(N2CCOCC2)n1.O.O=[N+]([O-])[O-].[Ag+] [Complex 5, AgL5NO3 × H2O] | > 50 µM | > 50 µM | 49.7 ± 3.11 µM | 19 mm | 50 µg/mL | 50 µg/mL | 50 µg/mL | <10 µg/mL | 10 µg/mL | 50 µg/mL | 50 µg/mL | 10 µg/mL | > 500 µg/mL | – | – | – | – | – | – | – | Inhibition zone [14]: 18 mm; Inhibition zone (B. subtilis ATCC 6633): 18 mm; Inhibition zone [12]: 17 mm; Inhibition zone [13]: 19 mm; Inhibition zone (E. faecalis ATCC 29212): 17 mm; Inhibition zone (S. aureus ATCC 6538): 17 mm; Inhibition zone (S. aureus ATCC 25923): 19 mm |
| NC(=NN=Cc1ccccc1)c1cncc(Cl)n1 [Complex L1, N′-(benzylidene)-6-chloropyrazine-2-carbohydrazonamide] | – | – | – | – | – | – | – | – | – | – | – | – | – | 250 µg/mL | > 50 µM | > 50 µM | > 50 µM | 500 µg/mL | 500 µg/mL | >500 µg/mL | – |
| N/C(=N\N=C\c1ccc([N+](=O)[O-])cc1)c1cccc(N2CCCC2)n1 [Complex L4, (4-nitrobenzylidene)-6-(pyrrolidin-1-yl)picolinohydrazonamide] | – | – | – | – | – | – | – | – | – | – | – | – | – | >500 µg/mL | 48.1 ± 6.09 µM | > 50 µM | > 50 µM | >500 µg/mL | >500 µg/mL | >500 µg/mL | – |
| N/C(=N\N=C\c1ccccc1)c1cncc(N2CCOCC2)n1 [Complex L5, (benzylidene)-6-morpholinopyrazine-2-carbohydrazonamide] | – | – | – | – | – | – | – | – | – | – | – | – | – | >500 µg/mL | > 50 µM | > 50 µM | > 50 µM | >500 µg/mL | >500 µg/mL | >500 µg/mL | – |
| N/C(=N\N=C\c1ccccc1)c1cncc(N2CCCC2)n1 [Complex L6, (benzylidene)-6-(pyrrolidin-1-yl)pyrazine-2-carbohydra-zonamide] | – | – | – | – | – | – | – | – | – | – | – | – | – | 500 µg/mL | > 50 µM | 42.4 ± 6.17 µM | > 50 µM | 500 µg/mL | 500 µg/mL | 500 µg/mL | – |
